Assay results published in patent US10645930B2, “Fungicidal mixtures based on prothioconazole and a strobilurin derivative” (BASF SE, priority 2002, dated 2020).

Assays:
[1] = test system: Erysiphe [syn. Blumeria] graminis forma specialis. tritici; test: Activity against mildew of wheat (protective, wheat seedlings cultivar Kanzler); type: in vivo; conditions: 7 days
Description: The active compounds, separately or together, were formulated as a 10% emulsion in a mixture of 63% by weight of cyclohexanone and 27% by weight of emulsifier, and diluted with water to the desired concentration. Evaluation was carried out by determining the infected leaf areas in percent. These percentages were converted into efficacies. The efficacy (W) was determined as follows using Abbot's formula: [formula] α corresponds to the fungal infection of the treated plants in % and β corresponds to the fungal infection of the untreated (control) plants in % An efficacy of 0 means that the infection level of the treated plants corresponds to that of the untreated control plants; an efficacy of 100 means that the treated plants were not infected. The expected efficacies of the mixtures of the active compounds were determined using Colby's formula [R. S. Colby, Weeds 15, 20-22 (1967)] and compared with the observed efficacies. E=x+y−x·y/100 Colby's formula: • E expected efficacy, expressed in % of the untreated control, when using the mixture of the active compounds A and B at the concentrations a and b • x efficacy, expressed in % of the untreated control, when using the active compound A at the concentration a • y efficacy, expressed in % of the untreated control, when using the active compound B at the concentration b Leaves of wheat seedlings of the cultivar “Kanzler” grown in pots were sprayed to runoff point with an aqueous preparation of active compound which had been prepared from a stock solution comprising 10% of active compound, 85% of cyclohexanone. and 5% of emulsifier, and, 24 hours after the spray coating had dried on, the leaves were dusted with spores of mildew of wheat (Erysiphe [syn. Blumeria] graminis forma specialis. tritici). The test plants were then placed in a greenhouse at 20-24° C. and 60-90% relative atmospheric humidity. After 7 days, the extent of the development of the mildew was determined visually in % infection of the entire leaf area. The visually determined values for the percentage of diseased leaf areas were converted into efficacies as % of the untreated control. An efficacy of 0 means the same disease level as in the untreated control, an efficacy of 100 means a disease level of 0%. The expected efficacies for the active compound combinations were determined using Colby's formula mentioned above and compared with the observed efficacies.

[2] = test system: Puccinia recondita; test: Curative activity against brown rust of wheat (wheat seedlings cultivar Kanzler); type: in vivo; conditions: 7 days
Description: The active compounds, separately or together, were formulated as a 10% emulsion in a mixture of 63% by weight of cyclohexanone and 27% by weight of emulsifier, and diluted with water to the desired concentration. Evaluation was carried out by determining the infected leaf areas in percent. These percentages were converted into efficacies. The efficacy (W) was determined as follows using Abbot's formula: [formula] α corresponds to the fungal infection of the treated plants in % and β corresponds to the fungal infection of the untreated (control) plants in % An efficacy of 0 means that the infection level of the treated plants corresponds to that of the untreated control plants; an efficacy of 100 means that the treated plants were not infected. The expected efficacies of the mixtures of the active compounds were determined using Colby's formula [R. S. Colby, Weeds 15, 20-22 (1967)] and compared with the observed efficacies. E=x+y−x·y/100 Colby's formula: • E expected efficacy, expressed in % of the untreated control, when using the mixture of the active compounds A and B at the concentrations a and b • x efficacy, expressed in % of the untreated control, when using the active compound A at the concentration a • y efficacy, expressed in % of the untreated control, when using the active compound B at the concentration b Leaves of wheat seedlings of the cultivar “Kanzler” grown in pots were dusted with spores of brown rust (Puccinia recondita). The pots were then placed in a chamber with high atmospheric humidity (90-95%), at 20-22° C. for 24 hours. During this time, the spores germinated and the germinal tubes penetrated into the leaf tissue. The next day, the infected plants were sprayed to runoff point with an aqueous formulation of active compound prepared from a stock solution comprising 10% of active compound, 85% of cyclohexanone and 5% of emulsifier. After the spray coating had dried on, the test plants were cultivated in a greenhouse at 20-22° C. and 65-70% relative atmospheric humidity for 7 days. Thereafter, the extent of the rust fungus development on the leaves was determined. The visually determined values for the percentage of diseased leaf areas were converted into efficacies as % of the untreated control. An efficacy of 0 means the same disease level as in the untreated control, an efficacy of 100 means a disease level of 0%. The expected efficacies for the combinations of active compounds were determined using Colby's formula mentioned above and compared with the observed efficacies.

[3] = 0.015 ppm active compound in the spray liquor
[4] = 0.06 ppm active compound in the spray liquor
[5] = 0.25 ppm active compound in the spray liquor
[6] = 1 ppm active compound in the spray liquor
[7] = 4 ppm active compound in the spray liquor

OC(Cc1ccccc1Cl)(Cn1nc[nH]c1=S)C1(Cl)CC1 (centres unmarked) [Compound I, 2-[2-(1-chlorocyclopropyl)-3-(2-chlorophenyl)-2-hydroxypropyl]-2,4-dihydro-[1,2,4]-triazole-3-thione]
Efficacy in % of the untreated control [1, 3]: 0 % of the untreated control | Efficacy in % of the untreated control [1, 4]: 0 % of the untreated control | Efficacy in % of the untreated control [1, 5]: 0 % of the untreated control | Efficacy in % of the untreated control [1, 6]: 0 % of the untreated control | Efficacy in % of the untreated control [1, 7]: 22 % of the untreated control | Efficacy in % of the untreated control ([2]; 0.006 ppm active compound in the spray liquor): 0 % of the untreated control | Efficacy in % of the untreated control [2, 3]: 0 % of the untreated control | Efficacy in % of the untreated control [2, 5]: 0 % of the untreated control | Efficacy in % of the untreated control [2, 6]: 0 % of the untreated control

CO/N=C(/C(=O)OC)c1ccccc1CO/N=C(\C)c1cccc(C(F)(F)F)c1 [Compound II, trifloxystrobin]
Efficacy in % of the untreated control [1, 4]: 0 % of the untreated control | Efficacy in % of the untreated control [1, 5]: 22 % of the untreated control | Efficacy in % of the untreated control [1, 6]: 44 % of the untreated control | Efficacy in % of the untreated control [1, 7]: 83 % of the untreated control | Efficacy in % of the untreated control [2, 4]: 0 % of the untreated control | Efficacy in % of the untreated control [2, 5]: 0 % of the untreated control

CO/C=C(/C(=O)OC)c1ccccc1COc1cccc(C(F)(F)F)n1 [Compound III, picoxystrobin]
Efficacy in % of the untreated control [1, 5]: 11 % of the untreated control | Efficacy in % of the untreated control [2, 4]: 0 % of the untreated control | Efficacy in % of the untreated control [2, 5]: 0 % of the untreated control | Efficacy in % of the untreated control [2, 6]: 33 % of the untreated control

COC(=O)N(OC)c1ccccc1COc1ccn(-c2ccc(Cl)cc2)n1 [Compound IV, pyraclostrobin]
Efficacy in % of the untreated control [1, 5]: 0 % of the untreated control | Efficacy in % of the untreated control [1, 6]: 0 % of the untreated control | Efficacy in % of the untreated control [2, 4]: 0 % of the untreated control | Efficacy in % of the untreated control [2, 5]: 0 % of the untreated control
